Data: patent US20060264330A1, “Agricultural agents containing copolymers” (priority 2003, published 2006)
Where a name gives a salt, the structure may show the parent alone.

Legend:
Assay type in all cases: in vivo
Solanum nigrum L. = assay: 14C-glyphosate foliar uptake by scintillation measurement; conditions: 14C-glyphosate-IPA 20 mM (aq), adjuvant 0.25%
Experimental: Determination of the foliar uptake of glyphosate with addition of the copolymers described
^14C-Glyphosate Experiment
^14C-glyphosate-IPA at a concentration of 20 mM (aq) (corresponds to 665 g of ae/ha at a spray volume of 200 l/ha) was treated with 0.25% of the copolymers described. Using this mixture, the foliar uptake into the genus Solanum nigrum L. was determined by means of scintillation measurement. The effect of the copolymer on the uptake of the active ingredient via the leaf surface (foliar uptake) is described in the table which follows: […]

velvetleaf (ABUTH) = assay: Nicosulforon experiment, plant fresh weight; conditions: nicosulforon 200 g of ai/ha, adjuvant 0.25%, 14 DAT; untreated = 100
Experimental: (§1) Nicosulforon was applied as an aqueous solution with a concentration of 200 g of ai/ha. The adjuvants were added to the application solution at a concentration of 0.25%. The mixture was applied to plants of the genus velvetleaf (ABUTH), common lambsquarter (CHEAL) and common chickweed (STEME). The efficacy was determined by weighing the plant weight (fresh weight in g) 14 days post-application (14 DAT).

common chickweed (STEME) = assay: Nicosulforon experiment, plant fresh weight; conditions: nicosulforon 200 g of ai/ha, adjuvant 0.25%, 14 DAT; untreated = 100
Experimental: as §1

[1] = tested on: common lambsquarter (CHEAL); assay: Nicosulforon experiment, plant fresh weight; conditions: nicosulforon 200 g of ai/ha, adjuvant 0.25%, 14 DAT; untreated = 100
Experimental: as §1

[2] = tested on: common lambsquarters (CHEAL); assay: Bentazone experiment, photosynthetic activity by fluorescence measurement (Fpc); conditions: sodium salt of bentazone 60 g ai/ha, adjuvant 0.25%, 1 DAT; Fpc drops from 100 to 0 with destruction of the plant
Experimental: (§2) The sodium salt of bentazone was applied as an aqueous solution with a concentration of 480 g/l. The application rate was 60 g of ai/ha. The mixture was applied to plants of the genus common lambsquarters (CHEAL) and wild buckwheat (POLCO). The adjuvants were added to the application solution at a concentration of 0.25%. The activity was determined by means of fluorescence measurement, where the factor Fpc is a measure of the photosynthetic activity. The destruction of the plant is associated with a drop in the Fpc value, starting from 100, down to 0.

wild buckwheat (POLCO) = assay: as above; conditions: sodium salt of bentazone 60 g ai/ha, adjuvant 0.25%, 1 DAT; Fpc drops from 100 to 0 with destruction of the plant
Experimental: as §2

**Q.** Which “Uptake (% of the amount of glyphosate applied)” value (Solanum nigrum L.) does the source give for `O=C(O)CNCP(=O)(O)O` [glyphosate, N-phosphonomethylglycine] here?
**A.** The value was 48 % of the amount of glyphosate applied.

**Q.** For `COc1cc(OC)nc(NC(=O)NS(=O)(=O)c2ncccc2C(=O)N(C)C)n1` [nicosulforon], which “FW (fresh weight) ABUTH” value (velvetleaf (ABUTH)) is on record?
**A.** The value was 90 g.

**Q.** And the “FW (fresh weight) STEME” value (common chickweed (STEME))?
**A.** Its value is 63 g.

**Q.** What about the “FW (fresh weight) CHEAL” value [1] of the same molecule?
**A.** The value was 88 g.

**Q.** Which results are given for `CC(C)N1C(=O)c2ccccc2NS1(=O)=O` [sodium salt of bentazone]?
**A.** Fluorescence Fpc CHEAL [2]: 56; Florescence Fpc POLCO (wild buckwheat (POLCO)): 46
